Source: patent US8252832B2, “Kinesin inhibitors as cancer therapeutics” (Novartis AG, priority 2007, dated 2012)

What was measured:
RL = assay: Cell cycle profile by FACS (propidium iodide DNA content); assay type: cell-based, human; conditions: 24 and 48 hr
Procedure: Lymphoma cell line cells were treated with the KSP inhibitors of the invention and analyzed by FACs analysis. Approximately 2×10^5 cells were harvested, cell pellets were washed with cold PBS twice and re-suspended in 500 μL cold PBS. Cells were fixed by adding 8 mL cold 80% ethanol while vortexing slowly. After 15 minutes of incubation fixed cells were washed twice with PBS and cell pellets were re-suspended in 1 mL of PI/RNASE staining buffer (BD Pharmingen™ catalog #550825) and incubated for 15 minutes at 37° C. protected from light. Propidium iodide (PI) is a fluorescent vital dye that stains both DNA and RNA. Therefore the RNA must be removed by digestion with ribonuclease (RNase). Stained cells were passed through a cell strainer into a FACS tube to reduce the number of cell aggregates (BD Falcon #352235) prior to FACS analysis. The DNA content of the fixed and stained cells was analyzed by the BD FACSCalibur flow cytometer using the CellQuest software.
Following mitotic arrest, cells have several options including coming out of arrest and dividing normally, undergoing apoptosis directly, or exiting mitosis without cytokinesis (a phenomenon called mitotic slippage). If cells undergo mitotic slippage, they can enter a pseudo-G1 and then either continue to cycle, senesce, or undergo apoptosis. […]

HCT-116 = assay: CTG (CellTiter-Glo) screening assay; assay type: cell-based; conditions: Homo sapiens
Text: Identification of tumor types that are the most sensitive to the KSP inhibitors of the present invention can be accomplished using an unbiased approach that uses several cell-based assays. The assays chosen were as follows: • CellTiter-Glo®. This is an assay designed to measure ATP concentration in a cell culture, and can be correlated to cell number. Briefly CellTiter-Glo® (Promega Corporation) is a homogeneous method using the single CellTiter-Glo® reagent to detect ATP wherein ATP in the assay drives the activity of a thermostable luciferase to create a luminescent signal which can then be measured and correlated with the number of viable cells. Briefly, for adherent cells, 1,000 to 5,000 cells/well were plated in 96-well plates (100 μl/well) and let to adhere for 24 hours before being treated with drug. For non-adherent cells, 1,000 to 10,000 cells/well were plated in 96-well plates (100 μl/well) and immediately treated with drug. Drug dilutions were prepared in DMSO at 1000 times the final concentration. These dilutions were then diluted 1/100 in growth media before being added to the cells (11 μl/well) to achieve the desired final concentration. […] Protocol for a 72 hour cell proliferation assay: The 72 hour assay was performed the same way as the 48 hour assay except for the following modifications: For adherent cells, 500 to 5,000 cells/well were plated in 96-well plates (90 μl/well cell growth media) and left to adhere for 24 hours before being treated with drug. For non-adherent cells, 1,000 to 10,000 cells/well were plated in 96-well plates (90 μl/well cell growth media) and immediately treated with drug. Data values presented represent the concentration of test compound required for a 50% reduction in growth. • LDH release. […] The enzymatic reaction is coupled to a chemical reaction that uses a tetrazolium salt to form a formazan that is red and can be detected by its absorbance at 490 nm. […]

For CC(C)(C)[C@H](c1nc(-c2cc(F)ccc2F)cn1Cc1ccccc1)N(CC[C@H](N)CF)C(=O)CO [Compound IIa], the “cell cycle profile (DNA content, FACS)” value (RL) was “remained arrested in mitosis”, the GI50 (HCT-116; HCT-116, 24 h) was over 5000 pM and the GI50 (HCT-116; HCT-116, 48 h) was 110 pM. For the same compound, the GI50 (HCT-116; HCT-116, 72 h) was 130 pM.
